Laboratory results: US11661431B2, “Thienopyrrole compounds” (Gilead Sciences, Inc., priority 2021, dated 2023)
pEC50: −log10 of the molar value.

Tests used:
TLR7 = TLR7 (Homo sapiens (Human), UniProt Q9NYK1); experiment: TLR7 human peripheral blood mononuclear cell (PBMC) cell-based assay (GS-986 as agonist; IL-6 and IFNα readout); details: human PBMCs, TLR7 agonist GS-986 at 400 nM, 6 hours, antagonist potency; read-out: TLR-7 EC50
Method in brief: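 Human PBMCs (100,000 cells/well) preincubated 1 h at 37 °C with antagonist in 10-point dose response, then stimulated with TLR7 agonist for a further 6 h at 37 °C, 5% CO2. Supernatant IL-6 and IFNα measured by electrochemiluminescence immunoassay.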

TLR8 = TLR8 (Homo sapiens (Human), UniProt Q9NR97); experiment: TLR8 human peripheral blood mononuclear cell (PBMC) cell-based assay (Compound A as agonist; TNFα and IL12p40 readout); details: human PBMCs, TLR8 agonist Compound A at 800 nM, 6 hours, antagonist potency; read-out: TLR-8 EC50
TLR8, sequence (Q9NR97 27-1041): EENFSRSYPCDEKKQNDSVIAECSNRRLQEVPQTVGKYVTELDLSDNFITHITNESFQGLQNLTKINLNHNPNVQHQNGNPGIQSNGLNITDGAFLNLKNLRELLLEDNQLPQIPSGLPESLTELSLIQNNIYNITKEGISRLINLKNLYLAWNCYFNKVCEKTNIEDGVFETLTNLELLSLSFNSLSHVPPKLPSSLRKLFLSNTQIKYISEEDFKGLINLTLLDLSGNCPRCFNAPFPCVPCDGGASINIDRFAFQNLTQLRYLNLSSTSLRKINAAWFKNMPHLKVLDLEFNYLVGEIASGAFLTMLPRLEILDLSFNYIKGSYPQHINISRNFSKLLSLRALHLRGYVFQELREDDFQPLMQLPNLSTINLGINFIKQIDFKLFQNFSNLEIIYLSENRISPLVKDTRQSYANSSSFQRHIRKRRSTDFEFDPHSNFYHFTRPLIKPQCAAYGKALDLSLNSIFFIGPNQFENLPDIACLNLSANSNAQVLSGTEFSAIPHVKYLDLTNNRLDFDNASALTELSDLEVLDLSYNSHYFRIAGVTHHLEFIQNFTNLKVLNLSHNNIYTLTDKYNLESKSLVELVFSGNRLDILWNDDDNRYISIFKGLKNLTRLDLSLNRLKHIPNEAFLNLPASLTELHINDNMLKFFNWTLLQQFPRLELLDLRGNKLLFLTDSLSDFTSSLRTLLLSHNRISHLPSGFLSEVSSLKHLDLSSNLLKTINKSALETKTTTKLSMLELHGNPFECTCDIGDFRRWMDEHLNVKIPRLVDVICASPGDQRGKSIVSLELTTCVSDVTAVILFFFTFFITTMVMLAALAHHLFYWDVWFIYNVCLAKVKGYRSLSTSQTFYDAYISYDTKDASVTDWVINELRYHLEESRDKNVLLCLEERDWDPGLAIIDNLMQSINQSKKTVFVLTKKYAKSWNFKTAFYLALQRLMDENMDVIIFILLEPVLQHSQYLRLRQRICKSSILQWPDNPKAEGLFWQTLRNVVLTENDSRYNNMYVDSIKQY

TLR7, sequence (Q9NYK1 27-1049): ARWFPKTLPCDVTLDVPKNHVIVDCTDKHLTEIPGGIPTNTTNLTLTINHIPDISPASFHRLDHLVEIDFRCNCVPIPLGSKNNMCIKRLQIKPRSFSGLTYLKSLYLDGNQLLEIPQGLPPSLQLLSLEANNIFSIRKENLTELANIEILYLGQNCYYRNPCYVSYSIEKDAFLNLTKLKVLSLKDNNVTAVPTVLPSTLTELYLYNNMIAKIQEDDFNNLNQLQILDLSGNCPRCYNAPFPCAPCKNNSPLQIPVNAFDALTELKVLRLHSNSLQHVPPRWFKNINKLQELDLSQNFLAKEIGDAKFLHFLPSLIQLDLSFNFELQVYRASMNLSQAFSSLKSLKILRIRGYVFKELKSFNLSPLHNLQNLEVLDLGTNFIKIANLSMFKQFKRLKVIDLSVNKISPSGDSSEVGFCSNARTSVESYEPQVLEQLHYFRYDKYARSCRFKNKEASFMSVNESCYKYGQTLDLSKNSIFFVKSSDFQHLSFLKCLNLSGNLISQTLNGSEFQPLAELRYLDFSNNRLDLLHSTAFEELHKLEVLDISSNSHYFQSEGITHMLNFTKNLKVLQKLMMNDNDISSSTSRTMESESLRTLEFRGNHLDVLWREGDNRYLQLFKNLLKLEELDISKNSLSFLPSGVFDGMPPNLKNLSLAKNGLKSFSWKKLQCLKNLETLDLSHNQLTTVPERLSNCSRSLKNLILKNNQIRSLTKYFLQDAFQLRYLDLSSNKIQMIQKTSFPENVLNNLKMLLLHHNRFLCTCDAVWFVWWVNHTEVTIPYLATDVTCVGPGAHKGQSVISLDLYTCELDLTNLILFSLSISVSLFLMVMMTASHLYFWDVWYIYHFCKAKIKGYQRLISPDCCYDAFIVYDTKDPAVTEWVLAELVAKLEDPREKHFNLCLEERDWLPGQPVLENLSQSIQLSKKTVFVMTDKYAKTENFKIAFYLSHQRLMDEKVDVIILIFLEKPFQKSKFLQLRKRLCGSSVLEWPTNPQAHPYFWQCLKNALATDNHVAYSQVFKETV

| Compound | pEC50 (TLR7) | pEC50 (TLR8) |
| --- | --- | --- |
| Cc1c(-c2[nH]c3sc(C4CCN(C(=O)[C@@H]5C[C@@H]6OCC[C@@H]6N5)CC4)c(C)c3c2C(C)C)cn2ncnc2c1C [Example 143] | 8.59 | 7.96 |
| Cc1c(-c2[nH]c3sc(C45CCN(CC(N)=O)CC4C5)c(C)c3c2C(C)C)cn2ncnc2c1C (single isomer, unassigned) [Example 103, 2-[6-[5-(7,8-dimethyl-[1,2,4]triazolo[1,5-a]pyridin-6-yl)-4-isopropyl-3-methyl-6H-thieno[2,3-b]pyrrol-2-yl]-3-azabicyclo[4.1.0]heptan-3-yl]acetamide] | 9.04 | 7.69 |
| Cc1c(-c2[nH]c3sc(C4C[C@@H]5C[C@H]4CC5N4CC5(C4)CS(=O)(=O)C5)c(C)c3c2C(C)C)cn2ncnc2c1C (stereo partly drawn) [Example 254] | 9.42 | 8.44 |
| Cc1c(-c2[nH]c3sc(C4CCN(C(=O)C56COC(CN5)C6)CC4)c(C)c3c2C(C)C)cn2ncnc2c1C (stereo not drawn) [Example 107] | > 10.30 | 8.17 |
| Cc1c(C23CN(CC(N)=O)CC2C3(F)F)sc2[nH]c(-c3cc(C)c4ncnn4c3)c(C(C)C)c12 (stereo not drawn) [Example 200] | 8.39 | 6.48 |
| Cc1c(-c2[nH]c3sc(-c4ccc(C5CCN(CC(N)=O)CC5)cc4)c(C)c3c2C(C)C)cn2ncnc2c1C [Example 113] | 9.27 | 8.01 |
| Cc1c(C2CCNCC2)sc2[nH]c(-c3cc(C)c4nnnn4c3)c(C(C)C)c12 [Example 251] | 9.89 | 8.09 |
| Cc1c(C2CCN(C(=O)[C@H]3COCCN3)CC2)sc2[nH]c(-c3cc(C)c4ncnn4c3)c(C(C)C)c12 [Example 35] | 10.00 | 7.89 |
| Cc1c(C2CCN(C(=O)[C@@H]3C[C@@H](F)CN3)CC2)sc2[nH]c(-c3cc(C)c4ncnn4c3)c(C(C)C)c12 [Example 117] | 9.28 | 7.78 |
| Cc1c(-c2[nH]c3sc([C@@H]4C[C@@H]5C[C@H]4CN5Cc4n[nH]c(=O)[nH]4)c(C)c3c2C(C)C)cn2ncnc2c1C [Example 152] | 9.38 | 8.54 |
| Cc1c(-c2[nH]c3sc(C4CCN(C5CCCNC5=O)CC4)c(C)c3c2C(C)C)cn2ncnc2c1C (stereo not drawn) [Example 286, 3-[4-[5-(7,8-dimethyl-[1,2,4]triazolo[1,5-a]pyridin-6-yl)-4-isopropyl-3-methyl-6H-thieno[2,3-b]pyrrol-2-yl]-1-piperidyl]piperidin-2-one] | 9.03 | 8.03 |
| Cc1c(-c2[nH]c3sc([C@H]4C[C@@H](c5nnc([C@@H]6COCCN6)o5)C4)c(C)c3c2C(C)C)cn2ncnc2c1C (single isomer, unassigned) [Example 243] | 8.90 | 7.67 |
| Cc1c(-c2[nH]c3sc([C@H]4C[C@@H]5CC[C@H]4CN5CC(N)=O)c(C)c3c2C(C)C)cn2ncnc2c1C (single isomer, unassigned) [Example 96] | 9.08 | 8.17 |
| Cc1c(C2CCN(C(=O)[C@@H]3CCCN3)CC2)sc2[nH]c(-c3cc(C)c4ncnn4c3)c(C(C)C)c12 [Example 14] | 9.68 | 7.86 |
| Cc1c(-c2ccc(N3CCNCC3)nc2)sc2[nH]c(-c3cc(C)c4ncnn4c3)c(C(C)C)c12 [Example 20, 4-isopropyl-3-methyl-5-(8-methyl-[1,2,4]triazolo[1,5-a]pyridin-6-yl)-2-(6-(piperazin-1-yl)pyridin-3-yl)-6H-thieno[2,3-b]pyrrole] | 9.55 | 7.92 |
| Cc1c(-c2[nH]c3sc([C@@H]4C[C@@H]5C[C@H]4CN5CC(=O)N(C)CCO)c(C)c3c2C(C)C)cn2ncnc2c1C [Example 266] | 8.90 | 9.48 |
| Cc1cc(-c2[nH]c3sc(S(=O)(=O)N4CCNCC4)cc3c2C(C)C)cn2ncnc12 [Example 6, 4-Isopropyl-5-(8-methyl-[1,2,4]triazolo[1,5-a]pyridin-6-yl)-2-(piperazin-1-ylsulfonyl)-6H-thieno[2,3-b]pyrrole] | 7.67 | 7.07 |
| Cc1c(C2CCN(C(=O)C34COC(CN3)C4)CC2)sc2[nH]c(-c3cc(C)c4ncnn4c3)c(C(C)C)c12 (stereo not drawn) [Example 55] | 9.64 | 7.78 |
| Cc1c(C2CCN(C(=O)[C@H]3C[C@@H](F)CN3)CC2)sc2[nH]c(-c3cc(C)c4ncnn4c3)c(C(C)C)c12 [Example 42] | 9.11 | 7.59 |
| Cc1c(-c2[nH]c3sc([C@@H]4C[C@@H]5C[C@H]4CN5C4COC4)c(C)c3c2C(C)C)cn2ncnc2c1C [Example 167] | 10.05 | 9.35 |
| Cc1c(-c2[nH]c3sc([C@@H]4C[C@@H]5C[C@H]4CN5)c(C)c3c2C(C)C)cn2ncnc2c1C [Example 72, 2-((1S,4R,5R)-2-azabicyclo[2.2.1]heptan-5-yl)-5-(7,8-dimethyl-[1,2,4]triazolo[1,5-a]pyridin-6-yl)-4-isopropyl-3-methyl-6H-thieno[2,3-b]pyrrole] | 10.00 | 9.96 |
| Cc1c(C23CCNCC2C3(F)F)sc2[nH]c(-c3cc(C)c4ncnn4c3)c(C(C)C)c12 (stereo not drawn) [Example 204] | 9.30 | 7.52 |
| Cc1c(-c2[nH]c3sc([C@@H]4C[C@@H]5C[C@H]4CN5Cc4ccc(Br)cc4)c(C)c3c2C(C)C)cn2ncnc2c1C [Example 154] | 9.36 | 9.07 |

| Compound | pEC50 (TLR7) | pEC50 (TLR8) |
| --- | --- | --- |
| Cc1c(-c2[nH]c3sc([C@@H]4C[C@@H]5C[C@H]4CN5)cc3c2C(C)C)cn2ncnc2c1C [Example 220] | 9.96 | 9.19 |
| Cc1c(C2CCC(C(=O)N3CCNCC3)CC2)sc2[nH]c(-c3cc(C)c4ncnn4c3)c(C(C)C)c12 (stereo not drawn) [Example 310] | 9.60 | 8.00 |
| Cc1c(-c2[nH]c3sc(C4CCC(N5CC[C@H](F)C5)CC4)c(C)c3c2C(C)C)cn2ncnc2c1C (stereo partly drawn) [Example 302] | 10.00 | 8.19 |
| Cc1c(C2CCN(S(=O)(=O)N3CCNCC3)CC2)sc2[nH]c(-c3cc(C)c4ncnn4c3)c(C(C)C)c12 [Example 156] | > 10.30 | 8.01 |
| Cc1c([C@@H]2C[C@@H]3CN(CC(N)=O)C[C@@H]3C2)sc2[nH]c(-c3cc(C)c4ncnn4c3)c(C(C)C)c12 [Example 71, 2-((3aR,6aS)-5-(4-isopropyl-3-methyl-5-(8-methyl-[1,2,4]triazolo[1,5-a]pyridin-6-yl)-6H-thieno[2,3-b]pyrrol-2-yl)hexahydrocyclopenta[c]pyrrol-2(1H)-yl)acetamide] | 9.35 | 8.11 |
| Cc1c(C2CCN(C(=O)[C@@H]3COCCN3)CC2)sc2[nH]c(-c3cc(C)c4ncnn4c3)c(C(C)C)c12 [Example 36] | 9.27 | 7.68 |
| Cc1c(-c2[nH]c3sc([C@H]4C[C@@H]5CC[C@H]4CN5Cc4cn(C)nn4)c(C)c3c2C(C)C)cn2ncnc2c1C (single isomer, unassigned) [Example 215] | > 10.30 | 9.11 |
| Cc1c(-c2[nH]c3sc([C@@H]4C[C@@H]5C[C@H]4CN5CC(=O)NC(C)C)c(C)c3c2C(C)C)cn2ncnc2c1C [Example 185] | 8.72 | 9.24 |
| Cc1c(-c2[nH]c3sc(-c4ccc(C5CCNCC5)cc4)c(C)c3c2C(C)C)cn2ncnc2c1C [Example 111] | 9.35 | 8.18 |
| Cc1c(-c2[nH]c3sc(C4CC5(CC(N)C5)C4)c(C)c3c2C(C)C)cn2ncnc2c1C (stereo not drawn) [Example 187] | 9.70 | 8.96 |
| Cc1c(-c2[nH]c3sc(-c4cccc(C5CCN(CC(N)=O)CC5)c4)c(C)c3c2C(C)C)cn2ncnc2c1C [Example 223] | 7.81 | 7.18 |
| Cc1c(-c2[nH]c3sc([C@@H]4C[C@@H]5CC[C@H]4CN5Cc4cn(C)nn4)c(C)c3c2C(C)C)cn2ncnc2c1C (single isomer, unassigned) [Example 216] | 8.56 | 8.28 |
| Cc1c(C2CC3COCC(C2)N3CC(N)=O)sc2[nH]c(-c3cc(C)c4ncnn4c3)c(C(C)C)c12 (stereo not drawn) [Example 30] | 8.47 | 6.59 |
| Cc1c(-c2[nH]c3sc(C4CCC5(CC4)CNCCO5)c(C)c3c2C(C)C)cn2ncnc2c1C (stereo not drawn) [Example 144, 9-(5-(7,8-dimethyl-[1,2,4]triazolo[1,5-a]pyridin-6-yl)-4-isopropyl-3-methyl-6H-thieno[2,3-b]pyrrol-2-yl)-1-oxa-4-azaspiro[5.5]undecane] | 9.60 | 8.69 |
| Cc1c(-c2[nH]c3sc(-c4ccc(C5CNCCO5)cc4)c(C)c3c2C(C)C)cn2ncnc2c1C (stereo not drawn) [Example 115] | 9.62 | 8.03 |
| Cc1c(C2CC23CCN(CC(N)=O)CC3)sc2[nH]c(-c3cc(C)c4ncnn4c3)c(C(C)C)c12 (stereo not drawn) [Example 211] | 8.29 | 7.51 |
| Cc1c(-c2[nH]c3sc([C@@H]4C[C@@H]5C[C@H]4CN5CC(N)=O)c(C)c3c2C(C)C)cn2nc(Cl)nc2c1C [Example 139] | 9.27 | 9.54 |
| Cc1c(-c2[nH]c3sc([C@@H]4C[C@@H]5C[C@H]4CN5CC4(F)COC4)c(C)c3c2C(C)C)cn2ncnc2c1C [Example 173] | 9.82 | 8.97 |
| Cc1cc(-c2[nH]c3sc(C4CCN(C(=O)[C@H]5COCCN5)CC4)cc3c2C(C)C)cn2ncnc12 [Example 57] | 9.57 | 7.81 |
| Cc1nc2c(C)cc(-c3[nH]c4sc(C5CCN(C(=O)[C@H]6COCCN6)CC5)c(C)c4c3C(C)C)cn2n1 [Example 135] | 9.55 | 7.57 |
| Cc1c(C2CC3(C2)CN(C(=O)[C@H]2COCCN2)C3)sc2[nH]c(-c3cc(C)c4ncnn4c3)c(C(C)C)c12 [Example 53] | 9.57 | 8.62 |
| Cc1c(C2CC3(CNC3)C2)sc2[nH]c(-c3cc(C)c4ncnn4c3)c(C(C)C)c12 [Example 58, 4-isopropyl-3-methyl-5-(8-methyl-[1,2,4]triazolo[1,5-a]pyridin-6-yl)-2-(2-azaspiro[3.3]heptan-6-yl)-6H-thieno[2,3-b]pyrrole] | 9.62 | 8.76 |
